Data from US9314464B2, “Compounds and compositions as protein kinase inhibitors” (Novartis AG, priority 2009, dated 2016).
Each block holds one molecule with its values, some of them ahead of it.

Key:
[1] = Liver Microsomal Clearance Assay, human; assay type: in vitro ADME; conditions: extraction ratio, human liver microsomes
Protocol: (§1) Liver Microsomal Clearance Assay
(§2) The in vitro microsomal clearance assay is designed to assess potential risks associated with hepatic metabolic stability of compounds. The test compound (1 μM) was incubated with liver microsomes (0.5 mg/mL) from different species (mouse, rat, monkey, dog and human) and NADPH (1 mM) in 100 mM potassium phosphate buffer at 37° C. At specific reaction time points (0, 5, 10 and 30 minutes), reaction aliquots were removed and reactions were terminated by addition of ice cold acetonitrile containing mass spectrometry internal standard. The samples were centrifuged and the supernatants were analyzed by LC-MS/MS. In vitro metabolic half-life (t1/2, min) and intrinsic clearance (CLint, μL/min/mg) are based on the rate and extent of metabolism of the test compound as determined by the disappearance of the parent compound from the reaction mixture. These values may be scaled to predict hepatic metabolic clearance rate (CLh, mL/min/kg) and extraction ratio (ER, expressed as a ratio of the predicted hepatic metabolic clearance to hepatic blood flow in that species). In general, compounds with high predicted CLint or ER in vitro are considered to be at high risk for exposure-limiting metabolism in vivo.

[2] = Liver Microsomal Clearance Assay, mouse; assay type: in vitro ADME; conditions: extraction ratio, mouse liver microsomes
Protocol: as §1, §2

[3] = In Vivo Pharmacokinetics Assay in mouse; conditions: male, Balb/c, plasma; for clearance at 24 h: IV 2 mg/kg
Protocol: (§3) Full pharmacokinetics study: Male Balb/c mice (n=3, body weights 22-25 g) or male Wistar rats (n=3, body weights 250-300 g) were administered the test compound intravenously via the lateral tail vein or orally via gavage. The formulation was typically a 2.5 mg/mL solution of the compound in 75% PEG300 and 25% D5W. Six blood samples of 50 μL each were collected serially for 24 h after dosing. The blood samples were centrifuged to separate the plasma. Plasma samples were analyzed and quantified by LC-MS/MS.
as §3, with “Rapid” for “Full”, “intravenously (IV)” for “intravenously”, “orally (PO)” for “orally”, “Blood” for “The blood”, “and plasma separated and pooled across” for “to separate”, “three animals at each time point per dose route.” for “plasma.”
For both full and rapid pharmacokinetics studies, the following parameters were calculated by non-compartmental regression analysis using Winnonlin 5.0 software (Pharsight, Mountain View, Calif., USA): plasma clearance (Cl), plasma maximum concentration (Cmax), plasma area-under-the-concentration-time-curve (AUC0-inf), and percent oral bioavailability (F %).

B-Raf V600E = B-Raf V600E (Homo sapiens (Human), UniProt P15056, V600E); experiment: B-Raf V600E/Mek Amplified Luminescence Proximity Homogeneous Assay (B-Raf V600E biochemical); conditions: read-out: BRAF V600E biochemical IC50
Protocol: The plate was incubated for 60 minutes at room temperature.
The B-Raf kinase activity reaction was started by the addition of 10 μl per well of 2×ATP (10 μM) diluted in assay buffer. After 3 hours, the reactions were stopped with the addition of 10 μl of stop reagent (60 mM EDTA, 0.01% Tween20). Phosphorylated product was measured using a rabbit anti-p-MEK (Cell Signaling, #9121) antibody and the Alpha Screen IgG (ProteinA) detection Kit (PerkinElmer #6760617R), by the addition of 30 μl to the well of a mixture of the antibody (1:2000 dilution) and detection beads (1:1000 dilution of both beads) in bead buffer (50 mM Tris, pH 7.5, 0.01% Tween20). The additions were carried out under dark conditions to protect the detection beads from light. A lid was placed on top of the plate and the plate was incubated for 1 hour at room temperature. The luminescence was read on a PerkinElmer Envision instrument. The concentration of each compound for 50% inhibition (IC50) was calculated by non-linear regression using XL Fit data analysis software.

[4] = 5 mg/kg, PO/IV 5/2 mg/kg, n = 1

Chain of B-Raf V600E (P15056 whole entry V600E): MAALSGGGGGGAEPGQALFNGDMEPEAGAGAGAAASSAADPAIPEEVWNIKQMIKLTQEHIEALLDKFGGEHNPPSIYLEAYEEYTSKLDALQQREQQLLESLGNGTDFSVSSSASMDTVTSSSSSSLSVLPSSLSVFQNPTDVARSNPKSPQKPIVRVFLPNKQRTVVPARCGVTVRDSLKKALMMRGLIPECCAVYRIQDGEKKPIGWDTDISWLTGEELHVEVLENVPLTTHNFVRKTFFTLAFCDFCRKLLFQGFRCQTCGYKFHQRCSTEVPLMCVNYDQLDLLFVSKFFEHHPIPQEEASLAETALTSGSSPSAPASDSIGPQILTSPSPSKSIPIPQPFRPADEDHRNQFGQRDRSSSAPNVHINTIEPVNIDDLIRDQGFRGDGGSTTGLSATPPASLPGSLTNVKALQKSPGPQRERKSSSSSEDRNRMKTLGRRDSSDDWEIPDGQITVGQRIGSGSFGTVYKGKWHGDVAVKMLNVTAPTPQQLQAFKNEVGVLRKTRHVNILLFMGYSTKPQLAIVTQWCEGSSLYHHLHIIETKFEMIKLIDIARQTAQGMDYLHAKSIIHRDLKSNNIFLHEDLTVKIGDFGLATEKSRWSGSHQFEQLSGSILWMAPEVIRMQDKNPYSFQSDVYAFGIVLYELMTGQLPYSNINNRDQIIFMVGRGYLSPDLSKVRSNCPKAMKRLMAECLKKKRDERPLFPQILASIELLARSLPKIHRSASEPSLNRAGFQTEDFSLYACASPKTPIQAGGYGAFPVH

- ER Human [1]: 0.66
- ER Mouse [2]: 0.79
- bioavailability at 24 h [3, 4]: 46%
- clearance at 24 h [3]: 7 mL/min/kg
- AUC at 24 h ([3]; PO 5 mg/kg, n = 1): 9.7 µM·h
- Cmax at 24 h ([3]; PO 5 mg/kg, n = 1): 7400 nM
Structure (SMILES): CCCS(=O)(=O)Nc1cc(Cl)cc(-c2nn(C(C)C)cc2-c2ccnc(NC[C@H](C)NC(=O)OC)n2)c1F [Compound 1, Methyl N-[(2S)-1-[(4-{3-[5-chloro-2-fluoro-3-(propane-1-sulfonamido)phenyl]-1-(propan-2-yl)-1H-pyrazol-4-yl}pyrimidin-2-yl)amino]propan-2-yl]carbamate]

- IC50 (B-Raf V600E): 0.6 nM
Structure (SMILES): COC(=O)N[C@@H](C)CNc1nccc(-c2cn(C(C)C)nc2-c2cc(F)cc(NS(C)(=O)=O)c2F)n1 [Compound 10, methyl N-[(2S)-1-({4-[3-(2,5-difluoro-3-methanesulfonamidophenyl)-1-(propan-2-yl)-1H-pyrazol-4-yl]pyrimidin-2-yl}amino)propan-2-yl]carbamate]

- IC50 (B-Raf V600E): 0.5 nM
Structure (SMILES): CCn1cc(-c2ccnc(NC[C@H](C)NC(=O)OC)n2)c(-c2cc(Cl)cc(NS(C)(=O)=O)c2F)n1 [Compound 11, methyl N-[(2S)-1-({4-[3-(5-chloro-2-fluoro-3-methanesulfonamidophenyl)-1-ethyl-1H-pyrazol-4-yl]pyrimidin-2-yl}amino)propan-2-yl]carbamate]

- IC50 (B-Raf V600E): 90 nM
Structure (SMILES): CC(C)n1cc(-c2ccnc(NCCN(C)C)n2)c(-c2cc(Cl)cc(NS(C)(=O)=O)c2F)n1 [Compound 28, N-{5-chloro-3-[4-(2-{[2-(dimethylamino)ethyl]amino}pyrimidin-4-yl)-1-(propan-2-yl)-1H-pyrazol-3-yl]-2-fluorophenyl}methanesulfonamide]

- IC50 (B-Raf V600E): 8 nM
Structure (SMILES): CNc1nccc(-c2cn(C(C)C)nc2-c2cc(Cl)cc(NS(C)(=O)=O)c2F)n1 [Compound 29, N-(5-chloro-2-fluoro-3-{4-[2-(methylamino)pyrimidin-4-yl]-1-(propan-2-yl)-1H-pyrazol-3-yl}phenyl)methanesulfonamide]

- IC50 (B-Raf V600E): 4.3 nM
Structure (SMILES): CC(C)n1cc(-c2ccnc(N)n2)c(-c2cc(Cl)cc(NS(C)(=O)=O)c2F)n1 [Compound 30, N-{3-[4-(2-aminopyrimidin-4-yl)-1-(propan-2-yl)-1H-pyrazol-3-yl]-5-chloro-2-fluorophenyl}methanesulfonamide]

- IC50 (B-Raf V600E): 2.9 nM
Structure (SMILES): COC(=O)NC[C@H](C)Nc1nccc(-c2cn(C(C)C)nc2-c2cc(Cl)cc(NS(C)(=O)=O)c2F)n1 [Compound 32, Methyl N-[(2S)-2-({4-[3-(5-chloro-2-fluoro-3-methanesulfonamidophenyl)-1-(propan-2-yl)-1H-pyrazol-4-yl]pyrimidin-2-yl}amino)propyl]carbamate]

More lines, now with the values behind:

Structure (SMILES): COC(=O)N[C@@H](C)CNc1nccc(-c2cn(C(C)C)nc2-c2cc(Cl)cc(NS(C)(=O)=O)c2)n1 [Compound 2, methyl N-[(2S)-1-({4-[3-(3-chloro-5-methanesulfonamidophenyl)-1-(propan-2-yl)-1H-pyrazol-4-yl]pyrimidin-2-yl}amino)propan-2-yl]carbamate]
- IC50 (B-Raf V600E): 0.8 nM

Structure (SMILES): CCCS(=O)(=O)Nc1cccc(-c2nn(C(C)C)cc2-c2ccnc(NC[C@H](C)NC(=O)OC)n2)c1F [Compound 3, methyl N-[(2S)-1-[(4-{3-[2-fluoro-3-(propane-1-sulfonamido)phenyl]-1-(propan-2-yl)-1H-pyrazol-4-yl}pyrimidin-2-yl)amino]propan-2-yl]carbamate]
- ER Human [1]: 0.69
- ER Mouse [2]: 0.85
- bioavailability at 24 h [3, 4]: 6%
- clearance at 24 h [3]: 51 mL/min/kg
- AUC at 24 h ([3]; PO 5 mg/kg, n = 1): 0.2 µM·h
- Cmax at 24 h ([3]; PO 5 mg/kg, n = 1): 70 nM

Structure (SMILES): COC(=O)N[C@@H](C)CNc1nccc(-c2cn(C(C)C)nc2-c2cccc(NS(C)(=O)=O)c2F)n1 [Compound 4, methyl N-[(2S)-1-({4-[3-(2-fluoro-3-methanesulfonamidophenyl)-1-(propan-2-yl)-1H-pyrazol-4-yl]pyrimidin-2-yl}amino)propan-2-yl]carbamate]
- IC50 (B-Raf V600E): 2.3 nM
- ER Human [1]: <0.31
- ER Mouse [2]: 0.40
- bioavailability at 24 h ([3]; 10 mg/kg, PO/IV 10/2 mg/kg): 36 ± 6%
- clearance at 24 h [3]: 41 ± 9 mL/min/kg
- AUC at 24 h ([3]; PO 10 mg/kg): 3 ± 0.5 µM·h
- Cmax at 24 h ([3]; PO 10 mg/kg): 2000 ± 500 nM

Structure (SMILES): CCCS(=O)(=O)Nc1cc(Cl)cc(-c2nn(C(C)C)cc2-c2ccnc(NC[C@H](C)NC(=O)OC)n2)c1 [Compound 5, methyl N-[(2S)-1-[(4-{3-[3-chloro-5-(propane-1-sulfonamido)phenyl]-1-(propan-2-yl)-1H-pyrazol-4-yl}pyrimidin-2-yl)amino]propan-2-yl]carbamate]
- IC50 (B-Raf V600E): 0.2 nM

Structure (SMILES): COC(=O)N[C@@H](C)CNc1nccc(-c2cn(C(C)C)nc2-c2c(F)ccc(NS(C)(=O)=O)c2F)n1 [Compound 6, methyl N-[(2S)-1-({4-[3-(2,6-difluoro-3-methanesulfonamidophenyl)-1-(propan-2-yl)-1H-pyrazol-4-yl]pyrimidin-2-yl}amino)propan-2-yl]carbamate]
- IC50 (B-Raf V600E): 3.9 nM
- ER Human [1]: 0.69
- bioavailability at 24 h ([3]; 10 mg/kg, PO/IV 10/2 mg/kg): 15 ± 3%
- clearance at 24 h [3]: 61 ± 6 mL/min/kg
- AUC at 24 h ([3]; PO 10 mg/kg): 1.1 ± 0.2 µM·h
- Cmax at 24 h ([3]; PO 10 mg/kg): 600 ± 20 nM

Structure (SMILES): COC(=O)N[C@@H](C)CNc1nccc(-c2cn(C(C)C)nc2-c2cc(F)cc(NS(C)(=O)=O)c2Cl)n1 [Compound 15, Methyl N-[(2S)-1-({4-[3-(2-chloro-5-fluoro-3-methanesulfonamidophenyl)-1-(propan-2-yl)-1H-pyrazol-4-yl]pyrimidin-2-yl}amino)propan-2-yl]carbamate]
- IC50 (B-Raf V600E): 1.1 nM

Structure (SMILES): COC(=O)N[C@@H](C)CNc1nccc(-c2cn(C(C)C)nc2-c2ccnc(NS(C)(=O)=O)c2F)n1 [Compound 16, methyl N-[(2S)-1-({4-[3-(3-fluoro-2-methanesulfonamidopyridin-4-yl)-1-(propan-2-yl)-1H-pyrazol-4-yl]pyrimidin-2-yl}amino)propan-2-yl]carbamate]
- IC50 (B-Raf V600E): 24 nM

Structure (SMILES): COC(=O)N[C@@H](C)CNc1nccc(-c2cn(C(C)C)nc2-c2ccc(F)c(NS(C)(=O)=O)c2F)n1 [Compound 19, methyl N-[(2S)-1-({4-[3-(2,4-difluoro-3-methanesulfonamidophenyl)-1-(propan-2-yl)-1H-pyrazol-4-yl]pyrimidin-2-yl}amino)propan-2-yl]carbamate]
- IC50 (B-Raf V600E): 6.1 nM

Structure (SMILES): CCS(=O)(=O)Nc1c(F)ccc(-c2nn(C(C)C)cc2-c2ccnc(NC[C@H](C)NC(=O)OC)n2)c1F [Compound 26, methyl N-[(2S)-1-({4-[3-(3-ethanesulfonamido-2,4-difluorophenyl)-1-(propan-2-yl)-1H-pyrazol-4-yl]pyrimidin-2-yl}amino)propan-2-yl]carbamate]
- IC50 (B-Raf V600E): 1.7 nM

Structure (SMILES): COC(=O)N[C@@H](C)CNc1nccc(-c2cn(C(C)C)nc2-c2cc(NS(C)(=O)=O)c(C)c(OC)c2)n1 [Compound 27]
- IC50 (B-Raf V600E): 390 nM

Structure (SMILES): COC(=O)N[C@@H](C)CNc1nccc(-c2c[nH]nc2-c2cc(Cl)cc(NS(C)(=O)=O)c2F)n1 [Compound 31, Methyl N-[(2S)-1-({4-[3-(5-chloro-2-fluoro-3-methanesulfonamidophenyl)-1H-pyrazol-4-yl]pyrimidin-2-yl}amino)propan-2-yl]carbamate]
- IC50 (B-Raf V600E): 0.8 nM

Structure (SMILES): CCCS(=O)(=O)Nc1c(F)ccc(-c2nn(C(C)C)cc2-c2ccnc(NC[C@H](C)NC(=O)OC)n2)c1F [Compound 34, methyl N-[(2S)-1-[(4-{3-[2,4-difluoro-3-(propane-1-sulfonamido)phenyl]-1-(propan-2-yl)-1H-pyrazol-4-yl}pyrimidin-2-yl)amino]propan-2-yl]carbamate]
- IC50 (B-Raf V600E): 2.7 nM
